Non-standard residues stand in square brackets, D forms with d. Residues, ends and D or L forms follow the SMILES beside them. Met(O2) = CS(=O)(=O)CC[C@H](N)C(=O)O

The values below come from patent US5189018A, “Method for reduction of central nervous system (CNS) edema resulting from head and spinal cord trauma” (Wayne State University, priority 1991, dated 1993).

Data set [1] concerns blood brain barrier permeability. The arrangement: species or system rat (Wistar). Conditions: rat, in vivo. From the text:
(§1) Applicant has developed a reliable physiologic model of potentially reversible, controlled fixed and closed-head injury in the laboratory rat (Wistar, Harlan Sprague-Dawley, Inc. Indianapolis, Ind.) that mimics many of the features of moderate concussion in humans. The model permits long term examination of subsequent cerebrovascular pathophysiological sequelae in conscious, unrestrained animals.
A rat anesthetized with halothane was mounted in a prone position on the test board and the head was fixed in position by means of the bite plate 30 over which the upper incisors were engaged as shown in FIG. 1c. […]
Brain vascular volume (BVS) and permeability were determined simultaneously utilizing modified methods of Rapoport, as described below (18). […] Moreover, estimates of BVS determined with either tracer are in agreement with published values obtained at more conventional time-intervals, e.g., two to ten minutes, after intravenous injection with an error of less than 4%. […]
The experimental protocol for the measurement of blood-to-brain transfer of diffusion-limited substances such as sucrose involved surgical implantation of catheters, one in a femoral vein, the other in the opposite femoral artery, under halothane anesthesia. […] The behavior of the animal was carefully monitored. […]

For data set [2], the system named is intracranial pressure. Further details: species or system rat (Wistar). Conditions: rat, in vivo.
Description: as §1
A rat anesthetized with halothane was mounted in a prone position on the test board and the head was fixed in position by means of the bite plate 30 over which the upper incisors were engaged as shown in FIG. 1c. The board angle of recline and the axis of pendulum rotation were adjustable to permit a flat or angled (3°-5° ) strike on the chosen head impact site. The optimum applied force/angle was selected from the nomogram. The pendulum was raised to the desired angle and released through a quick-release mechanism to fall into impact with the head. Forces developed by this means ranged from 60 to 85 pounds. […]
Intracranial pressures were determined in separate but identically treated animals. […] A Camino 431 miniature pressure sensor was inserted into the tubing and pressure was measured on Camino 420 Digital Pressure Monitor System. Intracranial pressure measurements were monitored from 5 minutes before and up to […] following head impaction. […]

The nature of data set [3]: Toxicity of subcutaneous doses in the rat model. Type of data set: in vivo. Conditions: doses up to four times 27.2 ug (65-75 ug/kg), s.c.
For data set [4] the following is noted: modified peptide less susceptible to enzymatic degradation, versus ACTH4-10; cited from earlier work.
Data set [5] relates to cisplatin neuropathy. Conditions: in vivo; cited from earlier work.
The test system of data set [6] is dementias; alcoholic inebriation. The following applies: human, in vivo; cited from earlier work.

Consider `CS(=O)(=O)CC[C@H](N)C(=O)N[C@@H](CCC(=O)O)C(=O)N[C@@H](Cc1c[nH]cn1)C(=O)N[C@@H](Cc1ccccc1)C(=O)N[C@H](CCCCN)C(=O)N[C@@H](Cc1ccccc1)C(=O)O` [Organon 2766, Met (O2) Glu-His-Phe-D-Lys-Phe] (H-[Met(O2)]EHF[dK]F-OH), for which, in data set [1], the “permeability of the blood-brain barrier at high dose” value is listed as “dramatically increased”. In addition, the “ICP in uninjured animals” value in data set [2] is given as “not different from control animals”. Also, the lethality result in data set [3] was “not lethal”. Also, the “half life in vivo” value in data set [4] is reported as “longer half life”. Besides, in data set [5], the “cytotoxic effect of cisplatin” value is reported as “without adversely effecting” and the toxic effects entry is “No toxic effects were noted”. In addition, the “toxicity and side effects in humans” value in data set [6] is “non-toxic and had no serious side effects”.
